Article PMC8196563, “Trichilones A–E: New Limonoids from Trichilia adolfi” (Molecules, 2021)
Converted amounts (≈) assume the structure as drawn. Like-named read-outs stand apart in the source and are kept apart here.

What was measured:
[1] = test system: L. braziliensis promastigotes; assay: In vitro leishmanicidal activity against promastigotes; format: cell-based; settings: Leishmania braziliensis, 72 h, read-out: Leishmanicidal activity L.b, IC50
Experimental: (§1) Leishmanicidal activity was assayed according to Williams, with some modi-fication. Promastigotes of Leishmania: L. amazonensis, Clone 1, NHOM-BR-76-LTB-012 (Lma, donated by the Paul Sabatier Université, France) and L. braziliensis M2904 C192 RJA (M2904, donated by Dr. Jorge Arévalo from Universidad Peruana Cayetano Heredia, Peru). The strains were cultured in Schneider’s insect medium (pH 6.2), supplemented with 10% FBS and incubated in 96-microwell plates at 26 °C. Briefly, promastigotes in logarithmic phase of growth, at concentration of […], were exposed to samples dissolved in DMSO (1%) at different concentrations (3.1–100 μg/mL). Miltefosine (3.1–100 μg/mL, IDPS, France) was used as a positive control drug. The microwell plates were incubated for 72 h at 26 °C, the optical density of each well was measured and the IC50 values calculated. All assays were performed in triplicate.

[2] = Cytotoxicity in murine macrophage cells (resazurin); format: cell-based; settings: mouse, Raw 264.7 macrophage cells, Raw 264.7 murine macrophage cells, triplicate
Experimental: The Raw 264.7 murine macrophage cell line was purchased from the American Type Culture Collection (ATCC-TIB71) (Manassas, VA, USA). The cells were maintained in DMEM-HG medium supplemented with 10% fetal bovine serum, 100 U/mL of penicillin and 100 μg/mL of streptomycin and sodium bicarbonate (2.2 g/L) in humidified atmosphere at 37 °C with 5% CO2. Samples were prepared as described above and added (in […]) at different concentrations (6.2–200 μg/mL). Medium blank, control drugs and cell growth controls were included to evaluate cell viability. The plates were incubated for 72 h at 37 °C with 5% CO2. After incubation for the indicated time, the cells were washed, after which 10 μL of Resazurin reagent (2.0 mM) was added. They were further incubated at 37 °C for 3 h in a humidified incubator. The IC50 values were assessed using a fluorometric reader (540 nm excitation, 590 nm emission) and Gen5 software. All assays were performed in triplicate.

[3] = test system: Leishmania amazonensis promastigotes; assay: In vitro leishmanicidal activity against promastigotes; format: cell-based; settings: 72 h, read-out: Leishmanicidal activity L.a, IC50
Experimental: as §1

[4] = L. braziliensis M2904 C192 RJA promastigotes, 26 °C, triplicate
[5] = L. amazonensis Clone 1 NHOM-BR-76-LTB-012 promastigotes, 26 °C, triplicate

Row | Structure (SMILES) | IC50 [1, 4] [mg/L] | melting point [°C] | IC50 at 72 h [2] [mg/L] | IC50 [3, 5] [mg/L] | IC50 [1] [mg/L] | IC50 [3] [mg/L]
1 | COC(=O)CC1C(C)(C)OC(=O)CC2OC3(C)C4C(=O)CC(c5ccoc5)C4(C)C(OC(C)=O)C(OC(=O)C(C)C)C3C21C (stereo not drawn) [Compound 1, Trichilone A] | 58 ± 18 (≈ 94 µM) | 143 | 42 ± 0.9 (≈ 68.1 µM) | – | – | –
2 | CCC(C)C(=O)OC1C(OC(C)=O)C2(C)C(c3ccoc3)CC(=O)C2C2(C)OC3CC(=O)OC(C)(C)C(CC(=O)OC)C3(C)C12 (stereo not drawn) [Compound 2, Trichilone B] | 70.1 ± 3 (≈ 111 µM) | – | 30 ± 10 (≈ 47.6 µM) | > 100 | – | –
3 | CCC(C)C(=O)OC1C(OC(C)=O)C2(C)C(c3ccoc3)CC(=O)C2C2(C)OC3CC(=O)OC(C)(C)C(CC(=O)OC)C3(C)C12O (stereo not drawn) [Compound 3, Trichilone C] | – | – | 60 ± 17 (≈ 92.8 µM) | – | 87.2 ± 13 (≈ 135 µM) | > 100
4 | COC(=O)CC1C(C)(C)OC(=O)C=C2OC3(C)C(C(OC(C)=O)C(OC(C)=O)C4(C)C(c5ccoc5)CC(=O)C34)C21C (stereo not drawn) [Compound 4, Trichilone D] | 98.5 ± 1.5 (≈ 168 µM) | – | 94.1 ± 4.2 (≈ 160 µM) | > 100 | – | –
5 | COC(=O)CC1C(C)(C)OC(=O)C=C2OC3(C)C(C(OC(=O)C(C)C)C(OC(C)=O)C4(C)C(c5ccoc5)CC(=O)C34)C21C (stereo not drawn) [Compound 5, Trichilone E] | 68.1 ± 6 (≈ 111 µM) | – | 41.5 ± 24 (≈ 67.5 µM) | 92 ± 7 (≈ 150 µM) | – | –
6 | CCCCCCCCCCCCCCCCOP(=O)([O-])OCC[N+](C)(C)C [Miltefosine, reference compound] | 4.07 ± 0.5 (≈ 9.99 µM) | – | 21 ± 2 (≈ 51.5 µM) | 5 ± 0.2 (≈ 12.3 µM) | – | –
